# Assay results published in patent US9988348B1, “Synthesis and antimicrobial use of a trithiocarbonate derivative” (KING SAUD UNIVERSITY, priority 2017, dated 2018).
# How the values were obtained:
# Assay in all cases: microdilution assay, minimal inhibitory concentration
# Type in all cases: cell-based
# [1] = test system: Aspergillus fumigatus AUMC 8794; conditions: AUMC8794, A. fumigatus, water-soluble form
# Method: (§1) To evaluate antimicrobial activity of the compound 4, synthesized in our laboratory as novel anti-bacterial and anti-fungal agents, the inhibition zone diameter (mm) and the minimal inhibitory concentration were determined according to (Andrews 2001; Hudzicki 2009). The test carried out on several clinical microorganisms included Gram positive bacteria (Staphylococcus aureus ATCC and Streptococcus mutans ATCC 35668), Gram negative bacteria (Escherichia coli ATCC 25922, Salmonella typhimurium ATCC 14028 and Neisseria meningitides ATCC 1302); yeasts (Candid albicans ATCC 60193, Cryptococcus neoformans Wild strain and Candida parapsilosus ATCC 22019) and molds (Aspergillus fumigatus AUMC 8794, Penicillum chrysogenum AUMC 9476 and Fusarium sp.)
# (§2) The minimal inhibitory concentration (MIC) of compound 4 (water-soluble form) was determined by a microdilution assay, using Mueller-Hinton broth (for bacteria) and Potato dextrose broth (for fungi). The compound 4 was dissolved in sterile culture broth (2 mg/mL). Two fold serial dilutions were carried out to obtain concentrations ranging from 2 to 0.008 mg/mL. 95 μL of each dilution were added in 96-well plates, then each well was inoculated with 5 μL of inoculation microbial suspension (5×10^8 colony form unit (CFU)/ml). The plates were incubated at suitable conditions according to tested microorganism. After the incubation, the microbial growth was detected in the wells by p-iodonitrotetrazolium violet (Sigma, USA) reagent. Each well received 20 μL of the reagent (0.5 mg/ml) and was then incubated at 37±1° C. for 30 min. A violet color indicated microbial growth in the well. The minimal inhibitory concentration (mg/ml) of the compound 4 was estimated as the lowest concentration that inhibited microbial growth.
# [2] = test system: Candid albicans ATCC 60193; conditions: Candida albicans, ATCC60193; C. albicans; water-soluble form
# Method: as §1, §2
# [3] = test system: Candida parapsilosus ATCC 22019; conditions: ATCC22019, C. parasilosus, water-soluble form
# Method: as §1, §2
# [4] = test system: Cryptococcus neoformans Wild strain; conditions: C. neoformasn, water-soluble form
# Method: as §1, §2
# [5] = test system: Escherichia coli ATCC 25922; conditions: ATCC25922, E. coli, water-soluble form
# Method: as §1, §2
# Fusarium sp. = conditions: water-soluble form
# Method: as §1, §2
# [6] = test system: Neisseria meningitides ATCC 1302; conditions: ATCC1302, N. meningitides, water-soluble form
# Method: as §1, §2
# [7] = test system: Penicillum chrysogenum AUMC 9476; conditions: P. chrysoginum; water-soluble form
# Method: as §1, §2
# [8] = test system: Salmonella typhimurium ATCC 14028; conditions: Salmonella enterica; Sa. typhimurium; water-soluble form
# Method: as §1, §2
# [9] = test system: Staphylococcus aureus ATCC; conditions: S. aureus, water-soluble form
# Method: as §1, §2
# [10] = test system: Streptococcus mutans ATCC 35668; conditions: ATCC35668, S. mutans, water-soluble form
# Method: as §1, §2
compound,measurement,setting,value
"CCOC(=O)CSC(=S)SCC(=O)OCC [Compound 4, diethyl 2,2′-(thiocarbonylbis(sulfanediyl))diacetate]",MIC,[1],31.2 µg/mL
same,MIC,[2],62.5 µg/mL
same,MIC,[3],50 µg/mL
same,MIC,[4],31.2 µg/mL
same,MIC,[5],1000 µg/mL
same,MIC,Fusarium sp.,31.2 µg/mL
same,MIC,[6],62.5 µg/mL
same,MIC,[7],31.2 µg/mL
same,MIC,[8],2000 µg/mL
same,MIC,[9],2000 µg/mL
same,MIC,[10],62.5 µg/mL
